Test results from publication PMC5955586, “Transport of enniatin B and enniatin B1 across the blood-brain barrier and hints for neurotoxic effects in cerebral cells” (PLoS ONE, 2018).

Key:
HT-29 = tested on: HT-29; design: method as in PMID 21640785; conditions: HT-29, 48 h; cited from earlier work
[1] = Transfer across PBCEC monolayer on Transwell filters (BBB model); type: in vitro ADME, porcine; conditions: pig; apical to basolateral, 1 μM apical application (passive transport); read-out: Permeability coefficient
Procedure: (§1) In accordance with the thawing and seeding procedure for PBCEC, described for the viability test, 500 μL PBCEC suspension (2.5 × 10^5 cells/well) in culture medium were seeded on rat tail collagen coated 12-well Transwell® microporous polycarbonate filter inserts (Corning, Wiesbaden, Germany; growth area 1.12 cm^2, pore size 0.4 μm) in the upper (apical) compartment of the filter system. The lower (basolateral) compartment was filled with 1500 μL complete medium. This two-compartment system was used as model system for the BBB with the apical compartment reflecting the “blood”-side and the basolateral compartment serving as the “brain”-side. After 48 h, the complete medium was replaced by serum free medium. Additionally, 550 nM hydrocortisone (Sigma-Aldrich, Steinheim, Germany) was supplemented to urge differentiation of cells. After another 48 h, experiments studying barrier integrity and permeability were performed.
(§2) Before starting each experiment, the TEER values and the electrical capacitance of all cell layers were measured via cellular impedance spectroscopy (cellZscope®, nanoAnalytics, Münster, Germany). […] TEER values relate to the constitution of the tight junctions limiting paracellular transfer of compounds. In addition to the TEER, electrical capacitances (CCl) were monitored for 48 h. Cellular phospholipid bilayers act like an electrical capacitor and also contribute to the cellular impedance. Changes of the CCl value give information about the integrity of the cell monolayer. In this experiment, a parallel set up was applied. For each treatment, one triplicate of filters was monitored via cellular impedance spectroscopy over the course of 48 h using a cellZscope® device–here, the basolateral compartment was prepared with 1650 μL serum free medium and the volume in the apical compartment was filled to 760 μL (ratio 1:2.17). Another triplicate for the same incubation conditions was kept in Transwell® filter cell culture multiple well plates (12 well format) over the course of 48 h. In the multiple well plates the ratio between the apical and the basolateral compartment was 1:3, therefore the starting volume in the apical compartment is 500 μL and 1500 μL in the basolateral compartment. Here, samples for quantitation of transfer of enniatins across the barrier were drawn after 1, 2.5, 6.5, 18, 24, 28, 42 and 48 hours in this given ratio i.e. 30 μL apical and 90 μL basolateral. After 48 h, the final TEER values of the filters from the multiple well plate were measured to ensure the stability of the cell layer throughout the experiment. To double check the integrity of the barrier, lucifer yellow (LY, 50 μM), as a paracellular transfer marker, was applied. The amount of LY found in the basolateral compartment after 1 h was measured at λex = 430 nm and λ em = 540 nm.
(§3) After the completion of the experiment, the polycarbonate filter membranes were extracted. The filters were cut out and extracted with ACN/H2O (8+2, v/v) via ultrasonication for 1 h. The extract was evaporated (vacuum concentrator BA-VC-200 H, Bachofer GmbH + Co KG, Reutlingen, Germany) and reconstituted in 200 μL of ACN/H2O (8+2, v/v). The obtained samples and filter extracts were analyzed and quantitated with high performance liquid chromatography-tandem mass spectrometry (HPLC-MS/MS).
(§4) The quantitation of ENN B and ENN B1 by HPLC-MS/MS was carried out using an 1100 series (Agilent Technologies, Santa Clara, USA) high performance liquid chromatography (HPLC) system and API 3200 (AB SCIEX Germany GmbH, Darmstadt, Germany) mass spectrometer. Both devices were operated with Analyst Version 1.6.2 software (AB SCIEX Germany GmbH, Darmstadt, Germany). A Synergi 4 μm Fusion-RP 80 Å 50 × 2.0 mm (Phenomenex) equipped with a Synergy 4 μm Fusion-RP 4 × 2.0 mm (Phenomenex) precolumn was used and maintained at 40°C. A binary gradient consisting of ACN (A) and water (B) (both containing 0.1% formic acid) was applied. […]

PBCEC monolayer = assay: as above; type: in vitro ADME, porcine; conditions: for active transport: 200 nM equimolar on both sides; for amount of apically applied compound found in basolateral compartment: after 6.5 h; for amount in filter membrane with attached PBCEC relative to applied amount: extraction after 48 h
Procedure: as §1, §2, §3, §4

CCF-STTG1 cells = assay: LDH leakage in CCF-STTG1; type: cell-based, human; conditions: CCF-STTG1, 0.1 to 2.5 μM, 48 h
Procedure: For measurement of lactate dehydrogenase (LDH) leakage, cell lysates and treatment solutions (serum free medium with respective ENN B/B1 content) after incubation for 48 h were used. The cell lysates were prepared as described for caspase-3 activation assay. To determine the LDH activity, 15 μL of the lysate and 40 μL of the incubation medium were each added to 200 μL substrate buffer (100 mM HEPES, 10 mM sodium pyruvate and 0.21 mM NADH, adjusted to pH 7.0), incubated over the course of 30 min at 37°C and absorption was measured every 2 min at 355 nm in a Infinite M200 PRO microplate reader (Tecan, Crailsheim, Germany).

MRC-5 cells = tested on: MRC-5 cells; design: method as in PMID 16730043; conditions: MRC-5, 24 h, Alamar Blue; cited from earlier work
HepG2 cells = tested on: HepG2 cells; design: method as in PMID 16730043; conditions: HepG2, 24 h, Alamar Blue; cited from earlier work
PBCEC = assay: Barrier integrity of PBCEC (TEER and capacitance CCl); type: cell-based, porcine; conditions: for barrier impairing effect: 200 nM; for effect on TEER value / effect on monolayer confluency (capacitance CCl): 1 μM, 48 h
Procedure: as §2

Row | Structure (SMILES) | IC50 (HT-29) | Papp A→B at 1 μM [1] | active transport (PBCEC monolayer) | amount transferred to basolateral compartment (PBCEC monolayer; 1 μM (0.5 nmol) apical, 6.5 h to 48 h) | amount of apically applied compound found in basolateral compartment (PBCEC monolayer; 1 μM (0.5 nmol) apical) | amount in filter membrane with attached PBCEC relative to applied amount (PBCEC monolayer) | LDH release (CCF-STTG1 cells) | IC50 (MRC-5 cells) | IC50 (HepG2 cells) | barrier impairing effect (PBCEC) | effect on TEER value (PBCEC) | effect on monolayer confluency (capacitance CCl) (PBCEC) | plateau of amount in basolateral compartment (PBCEC monolayer; 1 μM (0.5 nmol) apical)
1 | CC[C@H](C)[C@H]1C(=O)O[C@H](C(C)C)C(=O)N(C)[C@@H](C(C)C)C(=O)O[C@H](C(C)C)C(=O)N(C)[C@@H](C(C)C)C(=O)O[C@H](C(C)C)C(=O)N1C [ENN B1, enniatin B1] | 3.7 µM | 14.6 ×10⁻⁶ cm/s | minor enrichment in the apical compartment | up to 55% | 44% | 2.7% | no significant increase of LDH release | 4.7 µM | 36 µM | did not have any barrier impairing effect | does not lead to a breakdown of the TEER value | does not impair PBCEC confluency | –
2 | CC(C)[C@H]1C(=O)O[C@H](C(C)C)C(=O)N(C)[C@@H](C(C)C)C(=O)O[C@H](C(C)C)C(=O)N(C)[C@@H](C(C)C)C(=O)O[C@H](C(C)C)C(=O)N1C [ENN B, enniatin B] | 2.8 µM | 14.9 ×10⁻⁶ cm/s | minor enrichment in the apical compartment | – | 53% | below 1% | no significant increase of LDH release | 9.8 µM | 436 µM | did not have any barrier impairing effect | does not lead to a breakdown of the TEER value | does not impair PBCEC confluency | 70 ± 4%
